Common to all, as to format: functional, cell-based
Assay [1] addresses T1, Mu-type opioid receptor (Homo sapiens, UniProt P35372). Briefly: Agonist activity at human MOR expressed in CHO-K1 cells co-expressing G-alpha15 by calcium mobilization assay. The following applies: cho-k1. On the technique in general: A change in cytosolic calcium serves as a functional read-out for many receptors and channels.
Assay [2] addresses T2, Delta-type opioid receptor (Homo sapiens, UniProt P41143). Briefly: Agonist activity at human DOR expressed in CHO-K1 cells co-expressing G-alpha15 by calcium mobilization assay. To be noted: cho-k1.
For assay [3], the target named is T3, Kappa-type opioid receptor (Homo sapiens, UniProt P41145). The assay can be described thus: Agonist activity at human KOR expressed in CHO-K1 cells co-expressing G-alpha15 by calcium mobilization assay. The following applies: cho-k1.
T3 sequence (P41145 whole entry): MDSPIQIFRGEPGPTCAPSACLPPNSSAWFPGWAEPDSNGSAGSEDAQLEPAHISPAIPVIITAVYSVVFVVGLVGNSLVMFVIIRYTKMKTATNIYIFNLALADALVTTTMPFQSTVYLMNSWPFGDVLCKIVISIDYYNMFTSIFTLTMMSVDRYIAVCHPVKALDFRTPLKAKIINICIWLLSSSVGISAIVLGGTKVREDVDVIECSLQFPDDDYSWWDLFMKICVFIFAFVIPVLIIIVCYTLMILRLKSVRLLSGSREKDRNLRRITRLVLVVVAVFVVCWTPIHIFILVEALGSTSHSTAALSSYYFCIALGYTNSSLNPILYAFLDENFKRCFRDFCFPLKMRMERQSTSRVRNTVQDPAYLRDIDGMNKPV
Assay [4] deals with T1, Mu-type opioid receptor. Briefly: Agonist activity at human MOR expressed in CHO-K1 cells co-expressing G-alpha15 by calcium mobilization assay relative to control. The following applies: filed as agonist.
In assay [5] the target is T3, Kappa-type opioid receptor. Briefly: Agonist activity at human KOR expressed in CHO-K1 cells co-expressing G-alpha15 by calcium mobilization assay relative to control.
The target in assay [6] is T2, Delta-type opioid receptor. The assay can be described thus: Agonist activity at human DOR expressed in CHO-K1 cells co-expressing G-alpha15 by calcium mobilization assay relative to control. The following applies: filed as agonist.

Experimental findings from ChEMBL document CHEMBL5532665 (J Med Chem, 2024) are described below.

Broadly, the EC50 is the concentration at which the effect is half-maximal. Usually Emax stands for the maximal effect, on the per cent scale that the assay sets.

T1 sequence (P35372 whole entry): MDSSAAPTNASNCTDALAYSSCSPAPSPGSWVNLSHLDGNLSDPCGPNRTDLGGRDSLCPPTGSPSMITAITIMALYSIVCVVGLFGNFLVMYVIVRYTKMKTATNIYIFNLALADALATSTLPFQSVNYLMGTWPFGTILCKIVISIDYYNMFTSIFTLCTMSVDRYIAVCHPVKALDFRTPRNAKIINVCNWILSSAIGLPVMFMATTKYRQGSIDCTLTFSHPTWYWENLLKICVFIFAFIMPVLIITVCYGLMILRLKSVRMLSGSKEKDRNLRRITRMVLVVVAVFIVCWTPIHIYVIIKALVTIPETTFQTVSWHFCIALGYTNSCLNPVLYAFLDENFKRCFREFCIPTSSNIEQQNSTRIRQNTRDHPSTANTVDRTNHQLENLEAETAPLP
T2 sequence (P41143 whole entry): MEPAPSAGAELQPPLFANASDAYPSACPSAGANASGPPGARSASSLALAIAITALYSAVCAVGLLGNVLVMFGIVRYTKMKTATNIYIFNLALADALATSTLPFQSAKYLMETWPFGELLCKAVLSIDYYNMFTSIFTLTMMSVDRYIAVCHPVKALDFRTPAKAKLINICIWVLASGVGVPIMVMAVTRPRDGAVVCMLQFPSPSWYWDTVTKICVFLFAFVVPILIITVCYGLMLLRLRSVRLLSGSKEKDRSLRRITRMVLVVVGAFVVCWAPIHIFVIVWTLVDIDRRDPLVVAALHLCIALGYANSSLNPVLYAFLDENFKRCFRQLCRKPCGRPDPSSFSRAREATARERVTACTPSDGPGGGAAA

Consider `NC(=O)[C@H]1CCCN1C(=O)[C@@H]1CC(=O)NCCCC[C@@H](NC(=O)[C@@H](N)Cc2ccc(O)cc2)C(=O)NCC(=O)N[C@@H](CC2CCCCC2)C(=O)N1`, for which the EC50 in assay [1] came out at 43.2 nM; in assay [2], 804 nM.

For `Cc1ccc(C[C@@H]2NC(=O)CNC(=O)[C@H](NC(=O)[C@@H](N)Cc3ccc(O)cc3)CCCCNC(=O)C[C@@H](C(=O)N3CCC[C@@H]3C(N)=O)NC2=O)cc1`, the concentration for a half-maximal effect (EC50) was 29.1 nM in assay [1], 2430 nM in assay [3] and 22.2 nM in assay [2].

Regarding `Cc1ccc(C[C@@H]2NC(=O)CNC(=O)[C@H](NC(=O)[C@@H](N)Cc3ccc(O)cc3)CCCCNC(=O)C[C@H](C(=O)N3CCC[C@H]3C(N)=O)NC2=O)cc1`, the Emax was 109% in assay [4], 66.7% in assay [5] (filed as agonist) and 115% in assay [6].

As for `Cc1cc(O)cc(C)c1C[C@H](N)C(=O)N[C@@H]1CCCCNC(=O)C[C@H](C(=O)N2CCC[C@H]2C(N)=O)NC(=O)[C@H](Cc2ccccc2)NC(=O)CNC1=O`, the maximal response (Emax) in assay [4] was 101%; in assay [5], 39.2%; in assay [6] it was 116%.

`NC(=O)CNC(=O)[C@H]1CC(=O)NCCCC[C@@H](NC(=O)[C@@H](N)Cc2ccc(O)cc2)C(=O)NCC(=O)N[C@@H](Cc2ccccc2)C(=O)N1`: the Emax in assay [4] came out at 91.1%; in assay [5] (filed as agonist), 48.4%; in assay [6] it was 104%.

For the compound `CN1CC(=O)N[C@@H](Cc2ccccc2)C(=O)N[C@@H](C(=O)N2CCC[C@H]2C(N)=O)CC(=O)NCCCC[C@@H](NC(=O)[C@@H](N)Cc2ccc(O)cc2)C1=O`, the Emax in assay [4] is 118%; in assay [6] it was 100%.

As to `NC(=O)[C@@H]1CCCN1C(=O)[C@H]1CC(=O)NCCCC[C@@H](NC(=O)[C@@H](N)Cc2ccc(O)cc2)C(=O)NCCC(=O)N[C@@H](Cc2ccccc2)C(=O)N1`, the maximum response (Emax) in assay [4] is 95.9%.

Regarding `NC(=O)[C@H]1CC(=O)NCCCC[C@@H](NC(=O)[C@@H](N)Cc2ccc(O)cc2)C(=O)NCC(=O)N[C@@H](Cc2ccccc2)C(=O)N1`, the Emax is 103% in assay [4], 85.5% in assay [5] (filed as agonist) and 125% in assay [6].

`NC(=O)[C@H]1CCCN1C(=O)[C@@H]1CC(=O)NCCCC[C@@H](NC(=O)[C@@H](N)Cc2ccc(O)cc2)C(=O)NCC(=O)N(Cc2ccccc2)CC(=O)N1`: the EC50 in assay [1] is 36.1 nM; in assay [2], 837 nM.

With `NC(=O)[C@H]1CCCN1C(=O)[C@@H]1CC(=O)NCCCC[C@@H](NC(=O)[C@@H](N)Cc2ccc(O)cc2)C(=O)NCCC(=O)N[C@@H](Cc2ccccc2)C(=O)N1`, the half-maximal effective concentration (EC50) in assay [1] was 974 nM.

Consider `NC(=O)[C@@H]1CC(=O)NCCCC[C@@H](NC(=O)[C@@H](N)Cc2ccc(O)cc2)C(=O)NCC(=O)N[C@@H](Cc2ccccc2)C(=O)N1`, for which the EC50 in assay [1] turned out to be 1.4 nM; in assay [3] it was 1290 nM; in assay [2] it was 12.5 nM.

For `Cc1cc(O)cc(C)c1C[C@H](N)C(=O)N[C@@H]1CCCCNC(=O)C[C@@H](C(=O)N2CCC[C@@H]2C(N)=O)NC(=O)[C@H](Cc2ccccc2)NC(=O)CNC1=O`, the 50% effective concentration (EC50) in assay [1] was found to be 7.3 nM; in assay [3], 3550 nM; in assay [2] it was 1.2 nM.

Turning to `CN1CC(=O)N[C@@H](Cc2ccccc2)C(=O)N[C@H](C(=O)N2CCC[C@@H]2C(N)=O)CC(=O)NCCCC[C@@H](NC(=O)[C@@H](N)Cc2ccc(O)cc2)C1=O`, the concentration giving a half-maximal response (EC50) in assay [1] is 1150 nM; in assay [2], 3030 nM.

`NC(=O)CNC(=O)[C@@H]1CC(=O)NCCCC[C@@H](NC(=O)[C@@H](N)Cc2ccc(O)cc2)C(=O)NCC(=O)N[C@@H](Cc2ccccc2)C(=O)N1`: the values for the concentration giving a half-maximal response (EC50) in assay [1], in assay [3] and in assay [2] were 113 nM, 9200 nM and 623 nM, respectively.

Take `NC(=O)[C@@H]1CCCN1C(=O)[C@H]1CC(=O)NCCCC[C@@H](NC(=O)[C@@H](N)Cc2ccc(O)cc2)C(=O)NCC(=O)N[C@@H](CC2CCCCC2)C(=O)N1`: the Emax came to 105% in assay [4] and 54.4% in assay [6].

Turning to `NC(=O)[C@H]1CCCN1C(=O)[C@@H]1CC(=O)NCCCC[C@@H](NC(=O)[C@@H](N)Cc2ccc(O)cc2)C(=O)NCC(=O)N[C@@H](CCc2ccccc2)C(=O)N1`, the values for the EC50 in assay [1] and in assay [2] were 184 nM and 64.4 nM, respectively.
